Measurements reported in EP0001978A1, “A derivative of thiazolidine-4-carboxylic acid, method for the preparation and pharmaceutical compositions comprising the compound” (Santen Pharmaceutical Co., Ltd, priority 1977, dated 1979).

Assays:
[1] = target: T1, angiotensin I-converting enzyme (Cavia porcellus, UniProt H0UWL7); assay: Bioassay: contractile response of isolated guinea-pig ileum to angiotensin I; format: cell-based; details: angiotensin I 0.125µg/ml, compound added 5 minutes before; for inhibition at 1 µM: final concentration 10^-6 M
T1 construct: Preparation of isolated guinea-pig ileum was made and suspended in the organ bath; from tissue; host or cells: isolated guinea-pig ileum
T1 sequence (H0UWL7 33-1302): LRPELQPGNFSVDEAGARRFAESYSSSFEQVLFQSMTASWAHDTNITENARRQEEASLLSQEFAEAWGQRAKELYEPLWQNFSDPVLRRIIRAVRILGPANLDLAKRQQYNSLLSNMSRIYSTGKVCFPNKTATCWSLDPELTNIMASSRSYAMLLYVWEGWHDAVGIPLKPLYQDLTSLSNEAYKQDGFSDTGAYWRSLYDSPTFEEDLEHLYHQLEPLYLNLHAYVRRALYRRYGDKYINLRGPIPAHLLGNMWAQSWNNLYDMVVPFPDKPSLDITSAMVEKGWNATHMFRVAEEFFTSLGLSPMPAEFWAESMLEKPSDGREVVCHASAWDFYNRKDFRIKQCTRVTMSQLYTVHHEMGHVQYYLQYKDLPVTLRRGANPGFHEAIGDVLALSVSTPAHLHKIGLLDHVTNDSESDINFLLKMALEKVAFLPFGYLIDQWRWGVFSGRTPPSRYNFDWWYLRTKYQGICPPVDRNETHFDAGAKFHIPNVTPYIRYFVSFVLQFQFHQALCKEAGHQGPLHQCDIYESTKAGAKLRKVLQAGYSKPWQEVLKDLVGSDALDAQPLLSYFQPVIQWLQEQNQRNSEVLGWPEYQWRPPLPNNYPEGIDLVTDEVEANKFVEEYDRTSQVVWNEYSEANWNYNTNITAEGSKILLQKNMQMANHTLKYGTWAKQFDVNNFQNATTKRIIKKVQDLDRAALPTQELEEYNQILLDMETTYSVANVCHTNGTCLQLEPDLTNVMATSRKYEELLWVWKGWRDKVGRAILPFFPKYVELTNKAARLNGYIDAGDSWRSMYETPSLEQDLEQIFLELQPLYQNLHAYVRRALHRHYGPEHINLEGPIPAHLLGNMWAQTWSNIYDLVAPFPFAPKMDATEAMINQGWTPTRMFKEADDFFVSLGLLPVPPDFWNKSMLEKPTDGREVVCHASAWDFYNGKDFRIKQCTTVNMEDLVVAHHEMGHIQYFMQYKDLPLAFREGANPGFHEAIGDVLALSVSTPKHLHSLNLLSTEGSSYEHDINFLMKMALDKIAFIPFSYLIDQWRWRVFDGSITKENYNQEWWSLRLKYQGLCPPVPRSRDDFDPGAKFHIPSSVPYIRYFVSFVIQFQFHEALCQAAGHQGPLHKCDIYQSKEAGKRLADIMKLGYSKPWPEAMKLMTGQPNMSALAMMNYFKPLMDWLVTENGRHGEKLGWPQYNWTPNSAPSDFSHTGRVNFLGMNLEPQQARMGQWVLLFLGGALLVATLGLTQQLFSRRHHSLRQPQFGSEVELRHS
Description: In the present study, we adopted the bioassay for contractile response of iselated guinea-pig ileum to angiotensin I.
(§1) Measurement of inhibitory activity of angiotensin I-converting enzyme Preparation of isolated guinea-pig ileum was made and suspended in the organ bath containing 20ml of Tyrode's solution gassed 95% 02 + 5% CO2 at 30°C. The contraction induced by angiotensin I (0.125µg/ml) given at intervals of 10 minutes was recorded on a recticerder (Nihon Koden) for 90 seconds using FD pick up (ST-IT-H, Nihon Koden) .
(§2) The test compounds were added to the bath 5 minutes before the addition of angiotensin I.
The inhibitory activity of angiotensin I-converting enzyme was calculated by the following formula: [formula] • A: Contractile intensity of angiotensin I before addition of the compound • B: Contractile intensity of angiotensin I after addition of the compound

kininase II = target: T2, kininase II (Cavia porcellus, UniProt H0UWL7); assay: Augmentation of contractile response of isolated guinea-pig ileum to bradykinin; format: cell-based
T2 construct: Preparation of isolated guinea-pig ileum was made and suspended in the organ bath; from tissue; host or cells: isolated guinea-pig ileum
T2 sequence (H0UWL7 33-1302): T1 sequence (H0UWL7 33-1302)
Description: as §1, §2
(§3) The influence of the compounds on the contractile response of isolated guinea-pig ileum to angiotensin II was examined in the same manner as above. Further, augmentation of the contractile response to bradykinin by the test compounds was studied by the above-mentioned method from the fact that kininase II which destroys bradykinin is thought to be identical with angiotensin I-converting enzyme.

angiotensin II = assay: Contractile response of isolated guinea-pig ileum to angiotensin II; format: cell-based; details: Cavia porcellus, final concentration 10^-5 M
Description: as §1, §2, §3

male ddy-SLC strain rats = assay: Acute toxicity test (Miller and Tainter method); format: in vivo; details: oral, subcutaneous or intravenous; 30% suspension or 30% solution (pH 7.0); result in words
Description: Acute toxicity of the compound of this invention, (4R)-3-[(2S)-3-mercapto-2-methylpropanoyl]-4-thiazolidinecarboxylic acid, is shown in Table 3.
The male ddy-SLC strain rats (5 weeks of age, weighing […]) were placed in a breeding room of constant temperature and humidity (24+1°C, 55+5%) and fed freely pellet diet (CE-2, Clea Japan Inc.) and water for a week. The rats showing the normal growth were selected for the experiment.
30% suspension or 30% solution (pH 7.0) was administered orally, subcutaneously or intravenously and the toxicity was calculated by the Miller and Tainter method.

In the case of `C[C@@H](CS)C(=O)N1CSC[C@H]1C(=O)O` [Compound B, (4R)-3-[(2R)-3-mercapto-2-methylpropanoyl]-4-thiazolidinecarboxylic acid, reference compound], the inhibition at 10 µM ([1]; final concentration 10^-5 M) is reported as 59.3%, the inhibition at 1 µM [1] is reported as 24.7% and the “Augmentation to BK (%)” value (kininase II; final concentration 10^-7 M) is reported as 78.3%. The “Augmentation to BK (%)” value (kininase II; final concentration 10^-8 M) was 16.8% and the inhibition at 10 µM (angiotensin II) was 0%.

`C[C@H](CS)C(=O)N1CSC[C@H]1C(=O)O` [Compound A, (4R)-3-[(2S)-3-mercapto-2-methylpropanoyl]-4-thiazolidinecarboxylic acid] was tested, and the Acute toxicity (male ddy-SLC strain rats) was “lower toxicity”, the inhibition at 1 µM [1] was 72.6% and the inhibition at 0.1 µM ([1]; final concentration 10^-7 M) was 38.1%. For the same compound, the “Augmentation to BK (%)” value (kininase II; final concentration 10^-7 M) was 125.3%, the “Augmentation to BK (%)” value (kininase II; final concentration 10^-8 M) was 60.4% and the “Augmentation to BK (%)” value (kininase II; final concentration 10^-9 M) was 22.1%. For the same compound, the inhibition at 10 µM (angiotensin II) was 0%.
